# Laboratory results as given in patent publication US7781591B2, “Substituted 3-cyanopyridines as protein kinase inhibitors” (Wyeth LLC, priority 2006, dated 2010).
# pIC50: −log10 of the molar value. Read-outs that look alike come from different tables or passages of the source.
# Molecular target: T1, human PKCθ full length enzyme (Homo sapiens, UniProt Q04759)
# T1 construct: human PKCθ full length enzyme (Panvera Cat# P2996); purchased Panvera P2996
# Experiment: PKCθ IMAP assay (fluorescence polarization)
# Type: biochemical
# [1] = human PKCθ full length enzyme, IMAP, average value, read-out: IC50 PKCθ IMAP
# T1 sequence (Q04759 whole entry): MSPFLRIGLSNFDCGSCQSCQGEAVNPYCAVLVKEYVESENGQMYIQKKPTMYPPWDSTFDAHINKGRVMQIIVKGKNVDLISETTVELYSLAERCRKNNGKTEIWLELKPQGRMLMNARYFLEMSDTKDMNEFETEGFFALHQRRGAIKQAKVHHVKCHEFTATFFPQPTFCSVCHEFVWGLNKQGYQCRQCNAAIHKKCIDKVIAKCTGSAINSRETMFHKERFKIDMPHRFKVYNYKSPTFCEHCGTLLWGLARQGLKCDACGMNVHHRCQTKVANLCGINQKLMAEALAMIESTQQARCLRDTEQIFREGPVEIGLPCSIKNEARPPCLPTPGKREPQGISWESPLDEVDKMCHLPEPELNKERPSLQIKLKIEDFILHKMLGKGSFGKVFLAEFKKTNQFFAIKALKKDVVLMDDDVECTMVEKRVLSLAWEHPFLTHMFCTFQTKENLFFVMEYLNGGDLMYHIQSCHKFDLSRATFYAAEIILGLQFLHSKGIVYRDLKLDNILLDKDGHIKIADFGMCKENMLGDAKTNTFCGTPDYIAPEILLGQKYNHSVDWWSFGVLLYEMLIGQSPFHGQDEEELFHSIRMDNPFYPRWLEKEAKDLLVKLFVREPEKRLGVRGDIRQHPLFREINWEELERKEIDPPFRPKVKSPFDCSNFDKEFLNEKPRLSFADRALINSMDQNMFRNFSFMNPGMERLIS
SMILES,pIC50 [1],pIC50
"Cc1c(Nc2c(C#N)cncc2-c2cc3cc(CN4CCC(N5CCCCC5)CC4)ccc3o2)ccc2[nH]ccc12 [Compound 394, 5-[5-(1,4′-bipiperidin-1′-ylmethyl)-1-benzofuran-2-yl]-4-[(4-methyl-1H-indol-5-yl)amino]nicotinonitrile]",9.00,–
"Cc1c(Nc2c(C#N)cncc2-c2cc3cc(CN4CCC(N5CCOCC5)CC4)ccc3o2)ccc2[nH]ccc12 [Compound 395, 4-[(4-methyl-1H-indol-5-yl)amino]-5-{5-[(4-morpholin-4-ylpiperidin-1-yl)methyl]-1-benzofuran-2-yl}nicotinonitrile]",8.40,–
"Cc1c(Nc2c(C#N)cncc2-c2cc3cc(CN4CCN(CCN(C)C)CC4)ccc3o2)ccc2[nH]ccc12 [Compound 396, 5-[5-({4-[2-(dimethylamino)ethyl]piperazin-1-yl}methyl)-1-benzofuran-2-yl]-4-[(4-methyl-1H-indol-5-yl)amino]nicotinonitrile]",8.70,–
"Cc1c(Nc2c(C#N)cncc2-c2cc3cc(CN4CCN(c5ccccn5)CC4)ccc3o2)ccc2[nH]ccc12 [Compound 397, 4-[(4-methyl-1H-indol-5-yl)amino]-5-{5-[(4-pyridin-2-ylpiperazin-1-yl)methyl]-1-benzofuran-2-yl}nicotinonitrile]",7.89,–
"Cc1c(Nc2c(C#N)cncc2-c2cc3cc(CNCc4ccccn4)ccc3o2)ccc2[nH]ccc12 [Compound 398, 4-[(4-methyl-1H-indol-5-yl)amino]-5-(5-{[(pyridin-2-ylmethyl)amino]methyl}-1-benzofuran-2-yl)nicotinonitrile]",8.52,–
"Cc1c(Nc2c(C#N)cncc2-c2cc3cc(CNCc4cccnc4)ccc3o2)ccc2[nH]ccc12 [Compound 399, 4-[(4-methyl-1H-indol-5-yl)amino]-5-(5-{[(pyridin-3-ylmethyl)amino]methyl}-1-benzofuran-2-yl)nicotinonitrile]",8.70,–
"Cc1c(Nc2c(C#N)cncc2-c2cc3cc(CNCc4ccncc4)ccc3o2)ccc2[nH]ccc12 [Compound 400, 4-[(4-methyl-1H-indol-5-yl)amino]-5-(5-{[(pyridin-4-ylmethyl)amino]methyl}-1-benzofuran-2-yl)nicotinonitrile]",8.70,–
"Cc1c(Nc2c(C#N)cncc2-c2ccc(CN3CCOCC3)o2)ccc2[nH]ccc12 [Compound 401, 4-[(4-methyl-1H-indol-5-yl)amino]-5-[5-(morpholin-4-ylmethyl)-2-furyl]nicotinonitrile]",8.10,–
"Cc1c(Nc2c(C#N)cncc2-c2ccc(CN3CCCCC3)o2)ccc2[nH]ccc12 [Compound 402, 4-[(4-methyl-1H-indol-5-yl)amino]-5-[5-(piperidin-1-ylmethyl)-2-furyl]nicotinonitrile]",7.39,–
"Cc1c(Nc2c(C#N)cncc2-c2ccc(CN3CCC(N4CCCCC4)CC3)o2)ccc2[nH]ccc12 [Compound 403, 5-[5-(1,4′-bipiperidin-1′-ylmethyl)-2-furyl]-4-[(4-methyl-1H-indol-5-yl)amino]nicotinonitrile]",8.30,–
"Cc1c(Nc2c(C#N)cncc2-c2ccc(CN3CCC(N4CCCC4)CC3)o2)ccc2[nH]ccc12 [Compound 404, 4-[(4-methyl-1H-indol-5-yl)amino]-5-{5-[(4-pyrrolidin-1-ylpiperidin-1-yl)methyl]-2-furyl}nicotinonitrile]",8.40,–
"Cc1c(Nc2c(C#N)cncc2-c2ccc(CN3CCC(N4CCOCC4)CC3)o2)ccc2[nH]ccc12 [Compound 405, 4-[(4-methyl-1H-indol-5-yl)amino]-5-{5-[(4-morpholin-4-ylpiperidin-1-yl)methyl]-2-furyl}nicotinonitrile]",8.05,–
"CCN(CC)Cc1ccc(-c2cncc(C#N)c2Nc2ccc3[nH]ccc3c2C)o1 [Compound 406, 5-{5-[(diethylamino)methyl]-2-furyl}-4-[(4-methyl-1H-indol-5-yl)amino]nicotinonitrile]",7.38,–
"CCCCN(CCCC)Cc1ccc(-c2cncc(C#N)c2Nc2ccc3[nH]ccc3c2C)o1 [Compound 407, 5-{5-[(dibutylamino)methyl]-2-furyl}-4-[(4-methyl-1H-indol-5-yl)amino]nicotinonitrile]",7.70,–
"Cc1c(Nc2c(C#N)cncc2-c2ccc(CNCc3ccccc3)o2)ccc2[nH]ccc12 [Compound 408, 5-{5-[(benzylamino)methyl]-2-furyl}-4-[(4-methyl-1H-indol-5-yl)amino]nicotinonitrile]",7.96,–
"COc1ccc(-c2cncc(C#N)c2Nc2cc3cc[nH]c3cc2C)cc1OC [Compound 412, 5-(3,4-dimethoxyphenyl)-4-[(6-methyl-1H-indol-5-yl)amino]nicotinonitrile]",8.00,–
"Cc1cc2[nH]ccc2cc1Nc1c(C#N)cncc1-c1cc2ccccc2o1 [Compound 413, 5-(1-benzofuran-2-yl)-4-[(6-methyl-1H-indol-5-yl)amino]nicotinonitrile]",7.26,–
"Cc1c(Nc2c(C#N)cncc2-c2ccc(OCCNCCN(C)C)cc2)ccc2[nH]ccc12 [Compound 417, 5-[4-(2-{[2-(dimethylamino)ethyl]amino}ethoxy)phenyl]-4-[(4-methyl-1H-indol-5-yl)amino]nicotinonitrile]",–,8.22
"Cc1c(Nc2c(C#N)cncc2-c2ccc(OCCNCc3ccccc3)cc2)ccc2[nH]ccc12 [Compound 419, 5-{4-[2-(benzylamino)ethoxy]phenyl}-4-[(4-methyl-1H-indol-5-yl)amino]nicotinonitrile]",8.40,–
"Cc1c(Nc2c(C#N)cncc2-c2ccc(OCCN3CCC(N4CCOCC4)CC3)cc2)ccc2[nH]ccc12 [Compound 424, 4-[(4-methyl-1H-indol-5-yl)amino]-5-{4-[2-(4-morpholin-4-ylpiperidin-1-yl)ethoxy]phenyl}nicotinonitrile]",8.40,–
"Cc1c(Nc2c(C#N)cncc2-c2ccc(OCCNCCCn3ccnc3)cc2)ccc2[nH]ccc12 [Compound 429, 5-[4-(2-{[3-(1H-imidazol-1-yl)propyl]amino}ethoxy)phenyl]-4-[(4-methyl-1H-indol-5-yl)amino]nicotinonitrile]",8.30,–
"Cc1c(Nc2c(C#N)cncc2-c2ccc(OCCN3CCN(c4ccccn4)CC3)cc2)ccc2[nH]ccc12 [Compound 430, 4-[(4-methyl-1H-indol-5-yl)amino]-5-{4-[2-(4-pyridin-2-ylpiperazin-1-yl)ethoxy]phenyl}nicotinonitrile]",7.77,–
"Cc1c(Nc2c(C#N)cncc2-c2ccc(OCCN3CCN(c4ccncc4)CC3)cc2)ccc2[nH]ccc12 [Compound 431, 4-[(4-methyl-1H-indol-5-yl)amino]-5-{4-[2-(4-pyridin-4-ylpiperazin-1-yl)ethoxy]phenyl}nicotinonitrile]",8.30,–

# The next lines start with results.
pIC50 [1],SMILES,pIC50
8.40,"Cc1c(Nc2c(C#N)cncc2-c2ccc(OCCNCCO)cc2)ccc2[nH]ccc12 [Compound 414, 5-(4-{2-[(2-hydroxyethyl)amino]ethoxy}phenyl)-4-[(4-methyl-1H-indol-5-yl)amino]nicotinonitrile]",–
8.30,"Cc1c(Nc2c(C#N)cncc2-c2ccc(OCCNCCCO)cc2)ccc2[nH]ccc12 [Compound 415, 5-(4-{2-[(3-hydroxypropyl)amino]ethoxy}phenyl)-4-[(4-methyl-1H-indol-5-yl)amino]nicotinonitrile]",–
8.22,"CCOCCNCCOc1ccc(-c2cncc(C#N)c2Nc2ccc3[nH]ccc3c2C)cc1 [Compound 416, 5-(4-{2-[(2-ethoxyethyl)amino]ethoxy}phenyl)-4-[(4-methyl-1H-indol-5-yl)amino]nicotinonitrile]",–
8.40,"Cc1c(Nc2c(C#N)cncc2-c2ccc(OCCN3CCCC3)cc2)ccc2[nH]ccc12 [Compound 418, 4-[(4-methyl-1H-indol-5-yl)amino]-5-[4-(2-pyrrolidin-1-ylethoxy)phenyl]nicotinonitrile]",–
8.52,"Cc1c(Nc2c(C#N)cncc2-c2ccc(OCCNC3CCN(C)CC3)cc2)ccc2[nH]ccc12 [Compound 420, 4-[(4-methyl-1H-indol-5-yl)amino]-5-(4-{2-[(1-methylpiperidin-4-yl)amino]ethoxy}phenyl)nicotinonitrile]",–
8.52,"Cc1c(Nc2c(C#N)cncc2-c2ccc(OCCNCC3CCN(C)CC3)cc2)ccc2[nH]ccc12 [Compound 421, 4-[(4-methyl-1H-indol-5-yl)amino]-5-[4-(2-{[(1-methylpiperidin-4-yl)methyl]amino}ethoxy)phenyl]nicotinonitrile]",–
8.10,"Cc1c(Nc2c(C#N)cncc2-c2ccc(OCCN3CCC(CO)CC3)cc2)ccc2[nH]ccc12 [Compound 422, 5-(4-{2-[4-(hydroxymethyl)piperidin-1-yl]ethoxy}phenyl)-4-[(4-methyl-1H-indol-5-yl)amino]nicotinonitrile]",–
7.96,"Cc1c(Nc2c(C#N)cncc2-c2ccc(OCCN3CCC(N4CCCC4)CC3)cc2)ccc2[nH]ccc12 [Compound 423, 4-[(4-methyl-1H-indol-5-yl)amino]-5-{4-[2-(4-pyrrolidin-1-ylpiperidin-1-yl)ethoxy]phenyl}nicotinonitrile]",–
8.05,"CCN1CCN(CCOc2ccc(-c3cncc(C#N)c3Nc3ccc4[nH]ccc4c3C)cc2)CC1 [Compound 425, 5-{4-[2-(4-ethylpiperazin-1-yl)ethoxy]phenyl}-4-[(4-methyl-1H-indol-5-yl)amino]nicotinonitrile]",–
7.89,"Cc1c(Nc2c(C#N)cncc2-c2ccc(OCCN3CCCN(C)CC3)cc2)ccc2[nH]ccc12 [Compound 426, 5-{4-[2-(4-methyl-1,4-diazepan-1-yl)ethoxy]phenyl}-4-[(4-methyl-1H-indol-5-yl)amino]nicotinonitrile]",–
7.85,"Cc1c(Nc2c(C#N)cncc2-c2ccc(OCCN3CCN(CCO)CC3)cc2)ccc2[nH]ccc12 [Compound 427, 5-(4-{2-[4-(2-hydroxyethyl)piperazin-1-yl]ethoxy}phenyl)-4-[(4-methyl-1H-indol-5-yl)amino]nicotinonitrile]",–
7.82,"Cc1c(Nc2c(C#N)cncc2-c2ccc(OCCN3CCN(CCN(C)C)CC3)cc2)ccc2[nH]ccc12 [Compound 428, 5-[4-(2-{4-[2-(dimethylamino)ethyl]piperazin-1-yl}ethoxy)phenyl]-4-[(4-methyl-1H-indol-5-yl)amino]nicotinonitrile]",–
